Test results taken from patent EP1268431B1 (Wyeth, priority 2000, dated 2001).
“And” between values parts separate entries of the source, which are not always exact repeats. Equal entries are not always repeated. Where two headings read alike, the source gives them in different places.

Columns and labels:
c-Src = target: T1, c-Src (Homo sapiens, UniProt P12931); experiment: c-Src Kinase Assay (ELISA format); format: biochemical
T1 construct: purchased Upstate Biotechnologies
Experimental: Inhibitors of Src (partially purified preparation purchased from Upstate Biotechnologies) tyrosine kinase activity are analyzed in an ELISA format. […] Horseradish Peroxidase (HRP)-conjugated anti-phosphotyrosine is used to detect phosphorylated peptide via a color reaction. Conditions recommended by the manufacturer are employed.
Reaction conditions: Five microliter aliquots of each compound prepared fresh at the time of the assay are added as a solution in 10mM HEPES pH 7.5, 10% DMSO to the reaction well. Thirty-five microliters of reaction mix containing Src, buffer and peptide/bovine serum albumin mix are added to the compound wells and incubated at 30°C for 10 minutes (reaction buffer: 50mM TrisHCl pH 7.5, 10mM MgCl2, 0.1mM EGTA, 0.5mM Na3VO4). The reaction is started by addition of 10 microliters of ATP, incubated at 30°C for 1 hour, and stopped by addition of 20 microliters of 0.5M EDTA. The reaction mixture with the phosphorylated peptide is then transferred to a streptavidin-coated microtiter plate (provided in the kit) and allowed to bind for 20 minutes. Unbound peptide and reaction mixture is decanted and the plate is washed with PBS six times. HRP-conjugated phosphotyrosine antibody supplied in the kit is incubated with the plate for one hour, then decanted. The plate is again washed with PBS six times.
Activity is determined as % inhibition as calculated by the formula: (1 - Abs/Abs(max)) x 100 = % inhibition.

[1] = tested on: Rat2 fibroblasts stably transformed with a plasmid containing a CMV promotor controlled v-Src/Hu c-Src fusion gene; experiment: Anchorage Independent Src-transformed Fibroblast Proliferation Assay
[2] = Rattus norvegicus, Rat2, 120 h, read-out: anch-indep src-tx fib IC50, suspension growth, MTS on Day 5
[3] = read-out: anch-indep src-tx fib IC50, suspension growth, MTS on Day 5
[4] = Rattus norvegicus, Rat2, 120 h, read-out: anch-indep src-tx fib IC50

Row | IC50 (c-Src) | Compound | IC50 [1, 2] [nM] | further results
1 | 200 nM | COc1cc(Nc2c(C#N)cnc3cc(-c4cscc4CN4CCOCC4)ccc23)c(Cl)cc1Cl [Example 65, 4-(2,4-Dichloro-5-methoxyanilino)-7-[4-(4-morpholinylmethyl)-3-thienyl]-3-quinolinecarbonitrile] | > 10000 | 
2 | 2.1 nM and 3.7 nM | COc1cc(Nc2c(C#N)cnc3cc(-c4csc(CN5CCOCC5)c4)ccc23)c(Cl)cc1Cl [Example 24, 4-(2,4-Dichloro-5-methoxyanilino)-7-[5-(4-morpholinylmethyl)-3-thienyl]-3-quinolinecarbonitrile] |  | IC50 [1, 3]: 180 nM
3 | > 1000 nM | COc1cc(Nc2c(C#N)cnc3cc(-c4sccc4C=O)ccc23)c(Cl)cc1Cl [Example 163, 4-(2,4-dichloro-5-methoxyanilino)-7-(3-formyl-2-thienyl)-3-quinolinecarbonitrile] | > 10000 | 
4 | 2 nM | COc1cc(Nc2c(C#N)cnc3cc(-c4ccc(CN5CCOCC5)s4)ccc23)c(Cl)cc1Cl [Example 23, 4-(2,4-Dichloro-5-methoxyanilino)-7-[5-(4-morpholinylmethyl)-2-thienyl]-3-quinolinecarbonitrile] | 90 | 
5 | 21 nM | COc1cc(Nc2c(C#N)cnc3cc(-c4ccc(CNCCS(C)(=O)=O)o4)ccc23)c(Cl)cc1Cl [Example 77, 4-(2,4-Dichloro-5-methoxyanilino)-7-[5-({[2-(methylsulfonyl)ethyl]amino}methyl)-2-furyl]-3-quinolinecarbonitrile] | 420 | 
6 |  | COc1cc(Nc2c(C#N)cnc3cc(C#CCCl)ccc23)c(Cl)cc1Cl [Example 152, 7-(3-chloro-1-propynyl)-4-[(2,4-dichloro-5-methoxyphenyl)amino]-3-quinolinecarbonitrile] | 4800 | IC50 [1, 3]: 3800 nM
7 | 6.8 nM | COC(=O)C1CCN(Cc2ccc(-c3ccc4c(Nc5cc(OC)c(Cl)cc5Cl)c(C#N)cnc4c3)cc2)CC1 [Example 231, methyl 1-{4-[3-cyano-4-(2,4-dichloro-5-methoxy-anilino)-7-quinolinyl]benzyl}-4-piperidinecarboxylate] | 390 | 
8 |  | COc1cc(Nc2c(C#N)cnc3cc(-c4ccc(CN5CCOCC5)cn4)ccc23)c(Cl)cc1Cl [Example 57, 4-(2,4-Dichloro-5-methoxyanilino)-7-[5-(4-morpholinylmethyl)-2-pyridinyl]-3-quinolinecarbonitrile] |  | IC50 [1, 4]: 50 nM
9 | 12 nM and 16 nM | COc1cc(Nc2c(C#N)cnc3cc(-c4csc(CN5CCOCC5)c4)ccc23)c(C)cc1Cl [Example 167, 4-(4-chloro-5-methoxy-2-methylanilino)-7-[5-(4-morpholinylmethyl)-3-thienyl]-3-quinolinecarbonitrile] | 900 | 
10 | 5.5 nM | COc1cc(Nc2c(C#N)cnc3cc(C#CCN4CCOCC4)c(OC)cc23)c(Cl)cc1Cl [Example 166, 4-(2,4-dichloro-5-methoxyanilino)-6-methoxy-7-[3-(4-morpholinyl)-1-propynyl]-3-quinoline-carbonitrile] | 720 | 
11 | 8.2 nM | COc1cc(Nc2c(C#N)cnc3cc(-c4ccc(C5OCCO5)s4)ccc23)c(Cl)cc1Cl [Example 51, 4-(2,4-Dichloro-5-methoxyanilino)-7-[5-(1,3-dioxolan-2-yl)-2-thienyl]-3-quinolinecarbonitrile] | 420 | 
12 | 18 nM | COc1cc(Nc2c(C#N)cnc3cc(-c4ccc(CCl)cc4)ccc23)c(Cl)cc1Cl [Example 102, 7-[4-(Chloromethyl)phenyl]-4-(2,4-dichloro-5-methoxyanilino)-3-quinolinecarbonitrile] | 7500 | 
13 | 160 nM | COc1cc(Nc2c(C#N)cnc3cc(-c4cccc(NC(C)=O)c4)ccc23)c(Cl)cc1Cl [Example 118, N-{3-[3-Cyano-4-(2,4-dichloro-5-methoxyanilino)-7-quinolinyl]phenyl}acetamide] | 3000 | 
14 |  | COc1cc(Nc2c(C#N)cnc3cc(-c4ccc(CN5CCSCC5)cc4)ccc23)c(Cl)cc1Cl [Example 153, 4-[(2,4-dichloro-5-methoxyphenyl)amino]-7-[4-(4-thiomorpholinylmethyl)phenyl]-3-quinolinecarbonitrile] | 2800 | IC50 [1, 3]: 2700 nM
15 |  | COc1cc(Nc2c(C#N)cnc3cc(-c4ccc(CCN5CCOCC5)cc4)ccc23)c(Cl)cc1Cl [Example 27, 4-(2,4-Dichloro-5-methoxyanilino)-7-{4-[2-(4-morpholinyl)ethyl]phenyl}1-3-quinolinecarbonitrile] | 1020 | 
16 |  | 4-(2,4-dichloro-5-methoxyanilino)-7-{4-[(4-methyl-1-piperazinyl)]phenyl}-3-quinolinecarbonitrile [Example 218] |  | IC50 [1, 3]: 600 nM

Row | IC50 (c-Src) | Compound | IC50 [1, 2] [nM] | further results
17 | 8.3 nM and 5.6 nM | CCN1CCN(Cc2ccc(-c3cc4ncc(C#N)c(Nc5cc(OC)c(Cl)cc5Cl)c4cc3OC)cc2)CC1 [Example 31, 4-(2,4-Dichloro-5-methoxyanilino)-7-{4-[(4-ethyl-1-piperazinyl)methyl]phenyl}-6-methoxy-3-quinolinecarbonitrile] |  | 
18 | 240 nM | COc1cc(Nc2c(C#N)cnc3cc(-c4cnc(C=O)n4C)ccc23)c(Cl)cc1Cl [Example 96, 4-(2,4-Dichloro-5-methoxyanilino)-7-(2-formyl-1-methyl-1H-imidazol-5-yl)-3-quinolinecarbonitrile] |  | 
19 | 25 nM | COc1cc(Nc2c(C#N)cnc3cc(-c4cnc(CN5CCN(C)CC5)n4C)ccc23)c(Cl)cc1Cl [Example 227, 4-(2,4-dichloro-5-methoxyanilino)-7-{1-methyl-2-[(4-methyl-1-piperazinyl)methyl]-1H-imidazol-5-yl}-3-quinolinecarbonitrile] |  | 
20 |  | COc1cc(Nc2c(C#N)cnc3cc(C#CCN4CCOCC4)ccc23)c(Cl)cc1Cl [Example 146, 4-(2,4-dichloro-5-methoxyanilino)-7-[3-(4-morpholinyl)-1-propynyl]-3-quinolinecarbonitrile] | 6500 | 
21 |  | COc1cc(Nc2c(C#N)cnc3cc(-c4cccc([N+](=O)[O-])c4)ccc23)c(Cl)cc1Cl [Example 122, 4-(2,4-Dichloro-5-methoxyanilino)-7-(3-nitrophenyl)-3-guinolinecarbonitrile] |  | inhibition at 10 µM (c-Src; at 10 µM): 44%
22 | 1.9 nM | COc1cc(Nc2c(C#N)cnc3cc(-c4ccc(N5CCN(C)CC5)nc4)ccc23)c(Cl)cc1Cl [Example 198, 4-(2,4-dichloro-5-methoxyanilino)-7-[6-(4-methyl-1-piperazinyl)-3-pyridinyl]-3-quinolinecarbonitrile] |  | 
23 | 220 nM | COc1cc(Nc2c(C#N)cnc3cc(-c4cccc(CN5CCOCC5)c4)c(OC)cc23)c(Cl)cc1Cl [Example 39, 4-(2,4-Dichloro-5-methoxyanilino)-6-methoxy-7-[3-(4-morpholinylmethyl]phenyl}-3-quinolinecarbonitrile] |  | 
24 | 1.7 nM | COc1cc(Nc2c(C#N)cnc3cc(-c4csc(C=O)c4)ccc23)c(Cl)cc1Cl [Example 43, 4-(2,4-Dichloro-5-methoxyanilino)-7-(5-formyl-3-thienyl)-3-quinolinecarbonitrile] |  | 
25 | 28 nM | COc1cc(Nc2c(C#N)cnc3cc(-c4cnc(CN5CCN(C)CC5)n4C)c(OC)cc23)c(Cl)cc1Cl [Example 233, 4-(2,4-dichloro-5-methoxyanilino)-6-methoxy-7-{1-methyl-2-[(4-methyl-1-piperazinyl)methyl]-1H-imidazol-5-yl}-3-quinolinecarbonitrile] |  | 
26 | 24 nM | COc1cc(Nc2c(C#N)cnc3cc(-c4cccc(CN5CCOCC5)c4)ccc23)c(Cl)cc1Cl [Example 26, 4-(2.4-Dichloro-5-methoxyanilino)-7-[3-(4-morpholinylmethyl)phenyl]-3-quinolinecarbonitrile] |  | 
27 | 3.4 nM | COc1cc(Nc2c(C#N)cnc3cc(-c4ccc(N5CCOCC5)nc4)ccc23)c(Cl)cc1Cl [Example 185, 4-(2,4-dichloro-5-methoxyanilino)-7-[6-(4-morpholinyl)-3-pyridinyl]-3-quinolinecarbonitrile] |  | 
28 | 4.4 nM and 1.5 nM | CCN1CCN(Cc2ccc(-c3ccc4c(Nc5cc(OC)c(Cl)cc5Cl)c(C#N)cnc4c3)cc2)CC1 [Example 30, 4-(2,4-Dichloro-5-methoxyanilino)-7-{4-[(4-ethyl-1-piperazinyl)methyl]phenyl}-3-quinolinecarbonitrile] |  | 
29 | 111 nM | COc1cc(Nc2c(C#N)cnc3ccc(-c4csc(CN5CCOCC5)c4)cc23)c(Cl)cc1Cl [Example 50, 4-(2.4-Dichloro-5-methoxyanilino)-6-[5-(4-morpholinylmethyl)-3-thienyl]3-quinolinecarbonitrile] |  | 
30 |  | COc1cc(Nc2c(C#N)cnc3cc(-c4ccc(CN5CCN(C)CC5)o4)ccc23)c(Cl)cc1Cl [Example 41] |  | IC50 [1, 4]: 380 nM
31 | 12 nM and 15 nM | 4-(2,4-Dichloro-5-methoxyanilino)-6-methoxy-7-(1H-pyrrol-1-yl)-3-quinolinecarbonitrile [Example 59] |  | 
